Source: patent US20250177351A1, “ISOINDOLINE COMPOSITIONS AND METHODS FOR TREATING NEURODEGENERATIVE DISEASE” (Cognition Therapeutics, Inc., priority 2022, published 2025)

Test: Phase 1 MAD study: safety assessments
Type: in vivo, human
Description: In Part B, healthy young subjects in each cohort received the same dose once daily for 14 days after overnight fasting. Cohort dosing started at 280 mg, followed by 560 mg and 840 mg in subsequent cohorts. In each cohort, eight subjects received drug and two received placebo. A fourth cohort of healthy elderly subjects (≥65 years old) received a 560 mg dose vs. placebo daily for 14 days (seven active, two placebo).
Subjects were dosed in the morning with 240 mL of water after an 8-hour fast, and remained in a semi-reclined position for 1 hour and fasting for 2 hours post-administration, except for the fed cohort in Part A. Subjects in each MAD cohort were confined to the clinical facility from check-in on Day 0 until the pharmacokinetic sample was collected on Day 16, 48 hours after administration of the last dose on Day 14. Subjects returned to the clinical facility for follow-up visits on Days 24 and 35.
Safety variables, including incidence of adverse events (AEs), vital signs, clinical laboratory findings, 12-lead electrocardiographs (ECGs), physical examination, and affective and cognitive measures (Part B only), were summarized for all subjects who received study drug.

[1] = MAD, age ≤ 64 years, 280 mg (n = 8)
[2] = MAD, age ≤ 64 years, 560 mg (n = 8)
[3] = MAD, age ≤ 64 years, 840 mg (n = 8)
[4] = MAD, age ≥ 65 years, 560 mg (n = 7)

CC(C)(C)Oc1cc(CCC(C)(C)N2Cc3ccc(S(C)(=O)=O)cc3C2)ccc1O [CT1812]
tolerability (280 mg to 840 mg QD for 14 days, healthy subjects): well tolerated | ECG (MAD): No ECG parameters or changes were assessed as clinically significant | Number of Subjects with TEAE: Back pain (MAD Total Active (n = 31)): 2 | Number of Subjects with TEAE: Catheter site phlebitis (MAD Total Active (n = 31)): 2 | Number of Subjects with TEAE: Dizziness (MAD Total Active (n = 31)): 3 | Number of Subjects with TEAE: Dyspepsia (MAD Total Active (n = 31)): 3 | Number of Subjects with TEAE: Headache (MAD Total Active (n = 31)): 10 | Number of Subjects with TEAE: Nausea (MAD Total Active (n = 31)): 2 | Number of Subjects with TEAE: Procedural pain (MAD Total Active (n = 31)): 6 | Number of Subjects with TEAE: Upper respiratory tract infection (MAD Total Active (n = 31)): 8 | Number of Subjects with TEAE: Vomiting (MAD Total Active (n = 31)): 2 | Number of Subjects with at least one Treatment-Emergent AE: All TEAES (MAD Total Active (n = 31)): 25 | Number of Subjects with TEAE: Dizziness [1]: 1 | Number of Subjects with TEAE: Dyspepsia [1]: 1 | Number of Subjects with TEAE: Headache [1]: 2 | Number of Subjects with TEAE: Nausea [1]: 1 | Number of Subjects with TEAE: Upper respiratory tract infection [1]: 5 | Number of Subjects with at least one Treatment-Emergent AE: All TEAES [1]: 7 | Number of Subjects with TEAE: Catheter site phlebitis [2]: 1 | Number of Subjects with TEAE: Dyspepsia [2]: 1 | Number of Subjects with TEAE: Headache [2]: 1 | Number of Subjects with TEAE: Procedural pain [2]: 4 | Number of Subjects with TEAE: Upper respiratory tract infection [2]: 1 | Number of Subjects with at least one Treatment-Emergent AE: All TEAES [2]: 7 | Number of Subjects with TEAE: Back pain [3]: 1 | Number of Subjects with TEAE: Catheter site phlebitis [3]: 1 | Number of Subjects with TEAE: Dizziness [3]: 1 | Number of Subjects with TEAE: Dyspepsia [3]: 1 | Number of Subjects with TEAE: Headache [3]: 4 | Number of Subjects with TEAE: Nausea [3]: 1 | Number of Subjects with TEAE: Procedural pain [3]: 2 | Number of Subjects with TEAE: Upper respiratory tract infection [3]: 2 | Number of Subjects with TEAE: Vomiting [3]: 2 | Number of Subjects with at least one Treatment-Emergent AE: All TEAES [3]: 6 | Number of Subjects with TEAE: Back pain [4]: 1 | Number of Subjects with TEAE: Dizziness [4]: 1 | Number of Subjects with TEAE: Headache [4]: 3 | Number of Subjects with at least one Treatment-Emergent AE: All TEAES [4]: 5 | serious AE (SAE) (MAD, subject on 840 mg, respiratory picornavirus infection deemed unrelated to study treatment): One | subjects developing a rash (MAD, improvement after discontinuing CT1812): One | subjects with increase in liver function tests below 3× the upper limit of normal (MAD, including one subject on placebo): Four
